Assay results published in the supplement of paper PMC11208160.

Assay: recombinant barcode read abundance after kanamycin selection (control-corrected) (log10(CPM+1)); higher = more efficient recombination; sequences stand for … in AGTGCAGAGAAAATCGGCCAGTTTTCTCTGCCTGCAGTCCGCATGCCGT…AGATTTATGCAGCGGACTGCCTTTCTCCCAAAGTGATAAACCGGACAGTATCATGGACCGGTTTTCCCGGTAATCCGTATTTGCAAGGTTGGTTTCACT; site = the 11-nt target
Procedure, shortened: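 Targets and IS621 bridge RNA target-binding loops were paired in oligos, each with a promoter, a barcode and the J23119-driven first 104 bridge RNA bases. A vector carrying the remaining 73 bp and a T7-inducible recombinase received these by Gibson cloning, and the pool was co-electroporated into E. coli with a donor plasmid. Duplicate plates contained chloramphenicol/ampicillin LB agar (control) or chloramphenicol/ampicillin/kanamycin with 0.1 mM IPTG. Recombination efficiency comes from averaged, control-corrected counts per million of recombinant-junction barcodes, reported as log10(CPM+1).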
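Also: IS621 recombinase and bridge RNA in Escherichia coli cells.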

| Sequence | recombinant barcode read abundance (log10) |
| --- | --- |
| GTAGGCGCTTGGGTTCTAACCTGTTGCCT (site GTTGGCGCTAG) | 0.0331 |
| GTAGGGACTTGGGTTCTAACCTGTTGCCT (site GAAGGGACTAG) | 1.34 |
| GTAGGGACTTGGGTTCTAACCTGTTGCCT (site GCAGGGACTAG) | 0.806 |
| GTAGGGACTTGGGTTCTAACCTGTTGCCT (site GGAGGGACTAG) | 0.439 |
| GTAGGGACTTGGGTTCTAACCTGTTGCCT (site GTAGGGACTAG) | 1.97 |
| GTAGGGTCTTGGGTTCTAACCTGTTGCCT (site GTAGGGTCTAG) | 2.41 |
| GTAGGGTCTTGGGTTCTAACCTGTTGCCT (site TTGGGGTCTAG) | 0.324 |
| GTATACCCTTGGGTTCTAACCTGTTGCAT (site GTATACCCTAT) | 2.34 |
| GTATACCCTTGGGTTCTAACCTGTTGCAT (site GTATACCCTTG) | 0.224 |
| GTATCCACTTGGGTTCTAACCTGTTGCTA (site GTATCCACTTA) | 1.47 |
| GTATCCACTTGGGTTCTAACCTGTTGCTA (site GTATGCCCTTA) | 0.0561 |
| GTATCCTCTTGGGTTCTAACCTGTTGCAT (site GTATCCTCTAT) | 2.28 |
| GTATCCTCTTGGGTTCTAACCTGTTGCAT (site GTATGCTCTAC) | 0.0984 |
| GTATCTCCTTGGGTTCTAACCTGTTGCGG (site GTATCTCCTCC) | 0.0723 |
| GTATCTCCTTGGGTTCTAACCTGTTGCGG (site GTCTCACCTCC) | 0.0668 |
| GTATCTCCTTGGGTTCTAACCTGTTGCTT (site GTATCTCCTAA) | 0.321 |
| GTATCTCCTTGGGTTCTAACCTGTTGCTT (site GTATTTCCTAA) | 0.136 |
| GTATGTGCTTGGGTTCTAACCTGTTGCAA (site CTATGTGCTTC) | 0.0841 |
| GTATGTGCTTGGGTTCTAACCTGTTGCAA (site GTATGTGCTTT) | 0.769 |
| GTCAAACCTTGGGTTCTAACCTGTTGCTT (site GACAAACCTAG) | 0.274 |
| GTCAAACCTTGGGTTCTAACCTGTTGCTT (site GTCAAACCTAA) | 0.46 |
| GTCAAAGCTTGGGTTCTAACCTGTTGCCA (site GTCAAAGCTTG) | 0.0767 |

| Sequence | recombinant barcode read abundance (log10) |
| --- | --- |
| GTCAAAGCTTGGGTTCTAACCTGTTGCCA (site GTCACAGCTAG) | 0.407 |
| GTCAACCCTTGGGTTCTAACCTGTTGCTG (site GTCAAACCTCA) | 0.045 |
| GTCAACCCTTGGGTTCTAACCTGTTGCTG (site GTCAACCCTCA) | 2.49 |
| GTCAACCCTTGGGTTCTAACCTGTTGCTG (site GTCAAGCCTCA) | 0.32 |
| GTCAACCCTTGGGTTCTAACCTGTTGCTG (site GTCAATCCTCA) | 0.145 |
| GTCAATCCTTGGGTTCTAACCTGTTGCTG (site GTCAAACCTCA) | 0.00666 |
| GTCAATCCTTGGGTTCTAACCTGTTGCTG (site GTCAACCCTCA) | 0.288 |
| GTCAATCCTTGGGTTCTAACCTGTTGCTG (site GTCAAGCCTCA) | 0.193 |
| GTCAATCCTTGGGTTCTAACCTGTTGCTG (site GTCAATCCTCA) | 1.49 |
| GTCACCGCTTGGGTTCTAACCTGTTGCCT (site GTAACCGCTAG) | 0.409 |
| GTCACCGCTTGGGTTCTAACCTGTTGCCT (site GTCACCGCTAG) | 2.08 |
| GTCACCGCTTGGGTTCTAACCTGTTGCCT (site GTGACCGCTAG) | 0.129 |
| GTCACCGCTTGGGTTCTAACCTGTTGCCT (site GTTACCGCTAG) | 0.464 |
| GTCATGGCTTGGGTTCTAACCTGTTGCCT (site GTCAGGGCTAG) | 0.0945 |
| GTCATGGCTTGGGTTCTAACCTGTTGCCT (site GTCATGGCTAG) | 0.283 |
| GTCCACTCTTGGGTTCTAACCTGTTGCAC (site GTCCACCCTCT) | 0.0658 |
| GTCCACTCTTGGGTTCTAACCTGTTGCAC (site GTCCACTCTGT) | 2.21 |
| GTCCAGTCTTGGGTTCTAACCTGTTGCGT (site GTCCACTCTAA) | 0.0578 |
| GTCCAGTCTTGGGTTCTAACCTGTTGCGT (site GTCCAGTCTAC) | 3.16 |
| GTCCATTCTTGGGTTCTAACCTGTTGCAT (site GGACATTCTAT) | 0.101 |
| GTCCATTCTTGGGTTCTAACCTGTTGCAT (site GTCCATTCTAT) | 1.56 |
| GTCCTATCTTGGGTTCTAACCTGTTGCCA (site ACGGATCCTAT) | 0.0705 |

| Sequence | recombinant barcode read abundance (log10) |
| --- | --- |
| GTCCTATCTTGGGTTCTAACCTGTTGCCA (site GTCCTATCTTG) | 0.66 |
| GTCGAACCTTGGGTTCTAACCTGTTGCTA (site GTCGAACCTTA) | 1.79 |
| GTCGAACCTTGGGTTCTAACCTGTTGCTA (site GTCGTAGCTTA) | 0.0873 |
| GTCGCGCCTTGGGTTCTAACCTGTTGCCT (site GTCGCGACTAG) | 0.221 |
| GTCGCGCCTTGGGTTCTAACCTGTTGCCT (site GTCGCGCCTAG) | 0.271 |
| GTCGCGCCTTGGGTTCTAACCTGTTGCCT (site GTCGCGGCTAG) | 0.219 |
| GTCGCGCCTTGGGTTCTAACCTGTTGCCT (site GTCGCGTCTAG) | 0.58 |
| GTCGGAACTTGGGTTCTAACCTGTTGCCT (site GTCGGAACTAG) | 1.73 |
| GTCGGAACTTGGGTTCTAACCTGTTGCCT (site GTCGGCACTAG) | 0.329 |
| GTCGGAACTTGGGTTCTAACCTGTTGCCT (site GTCGGGACTAG) | 0.174 |
| GTCGGAACTTGGGTTCTAACCTGTTGCCT (site GTCGGTACTAG) | 0.0137 |
| GTCGGTACTTGGGTTCTAACCTGTTGCCT (site GTCGGAACTAG) | 0.115 |
| GTCGGTACTTGGGTTCTAACCTGTTGCCT (site GTCGGCACTAG) | 0.0645 |
| GTCGGTACTTGGGTTCTAACCTGTTGCCT (site GTCGGGACTAG) | 0.0319 |
| GTCGGTACTTGGGTTCTAACCTGTTGCCT (site GTCGGTACTAG) | 0.952 |
| GTCGTCACTTGGGTTCTAACCTGTTGCCT (site GTCGTCACTAG) | 0.334 |
| GTCGTCACTTGGGTTCTAACCTGTTGCCT (site GTCGTCCCTAG) | 0.0716 |
| GTCGTCACTTGGGTTCTAACCTGTTGCCT (site GTCGTCGCTAG) | 0.15 |
| GTCGTCACTTGGGTTCTAACCTGTTGCCT (site GTCGTCTCTAG) | 0.0772 |
| GTCGTCCCTTGGGTTCTAACCTGTTGCCT (site GTCGTCACTAG) | 0.0509 |
| GTCGTCCCTTGGGTTCTAACCTGTTGCCT (site GTCGTCCCTAG) | 0.315 |
| GTCGTCCCTTGGGTTCTAACCTGTTGCCT (site GTCGTCGCTAG) | 0.0602 |

| Sequence | recombinant barcode read abundance (log10) |
| --- | --- |
| GTCGTCCCTTGGGTTCTAACCTGTTGCCT (site GTCGTCTCTAG) | 0.0914 |
| GTCGTCTCTTGGGTTCTAACCTGTTGCCT (site GTCGTCACTAG) | 0.0143 |
| GTCGTCTCTTGGGTTCTAACCTGTTGCCT (site GTCGTCCCTAG) | 0.463 |
| GTCGTCTCTTGGGTTCTAACCTGTTGCCT (site GTCGTCGCTAG) | 0.136 |
| GTCGTCTCTTGGGTTCTAACCTGTTGCCT (site GTCGTCTCTAG) | 1.65 |
| GTCGTTACTTGGGTTCTAACCTGTTGCCT (site GTCGTTACTAG) | 0.339 |
| GTCGTTACTTGGGTTCTAACCTGTTGCCT (site TAGCAATCTTA) | 0.22 |
| GTCGTTCCTTGGGTTCTAACCTGTTGCCT (site GTAGTTCCTAG) | 0.535 |
| GTCGTTCCTTGGGTTCTAACCTGTTGCCT (site GTCGTTCCTAG) | 0.153 |
| GTCTAGGCTTGGGTTCTAACCTGTTGCTG (site GCCGAGGCTCA) | 0.242 |
| GTCTAGGCTTGGGTTCTAACCTGTTGCTG (site GTCTAGGCTCA) | 0.876 |
| GTCTATACTTGGGTTCTAACCTGTTGCCA (site GTCTATACTTG) | 0.571 |
| GTCTATACTTGGGTTCTAACCTGTTGCCA (site TTCTAGACTTG) | 0.0838 |
| GTCTATACTTGGGTTCTAACCTGTTGCCT (site GTATATACTAG) | 0.168 |
| GTCTATACTTGGGTTCTAACCTGTTGCCT (site GTCTATACTAG) | 0.987 |
| GTCTATACTTGGGTTCTAACCTGTTGCCT (site GTGTATACTAG) | 0.0645 |
| GTCTATACTTGGGTTCTAACCTGTTGCCT (site GTTTATACTAG) | 0.311 |
| GTCTATGCTTGGGTTCTAACCTGTTGCGT (site GTCTAAGCTAA) | 0.0746 |
| GTCTATGCTTGGGTTCTAACCTGTTGCGT (site GTCTATGCTAC) | 0.0203 |
| GTCTCCTCTTGGGTTCTAACCTGTTGCCT (site GTCACCTCTAG) | 0.0265 |
